The results in this text go back to ChEMBL document CHEMBL1909046, “DrugMatrix in vitro pharmacology data”.

The target of test [1] is Beta-3 adrenergic receptor (Homo sapiens, UniProt P13945). Description: DRUGMATRIX: Adrenergic beta3 radioligand binding (ligand: [125I] Cyanopindolol). Type of test: cell membranes, HEK293, Membrane. To be noted: Not Active = under 50% inhibition at 10 µM; for Ki: read-out: Ki.
A short description of test [2]: DRUGMATRIX: Atrial Natriuretic Factor (ANF) radioligand binding (ligand: [125I] ANF (rat)). Type of test: cell membranes, Cavia porcellus, Dunkin-Hartley, Adrenal gland, Membrane. To be noted: Not Active = under 50% inhibition at 10 µM.
The target in test [3] is T1, Substance-K receptor (Homo sapiens, UniProt P21452). Also: in other assays of this panel Not Active means under 50% inhibition at 10 µM.
T1 sequence (P21452 whole entry): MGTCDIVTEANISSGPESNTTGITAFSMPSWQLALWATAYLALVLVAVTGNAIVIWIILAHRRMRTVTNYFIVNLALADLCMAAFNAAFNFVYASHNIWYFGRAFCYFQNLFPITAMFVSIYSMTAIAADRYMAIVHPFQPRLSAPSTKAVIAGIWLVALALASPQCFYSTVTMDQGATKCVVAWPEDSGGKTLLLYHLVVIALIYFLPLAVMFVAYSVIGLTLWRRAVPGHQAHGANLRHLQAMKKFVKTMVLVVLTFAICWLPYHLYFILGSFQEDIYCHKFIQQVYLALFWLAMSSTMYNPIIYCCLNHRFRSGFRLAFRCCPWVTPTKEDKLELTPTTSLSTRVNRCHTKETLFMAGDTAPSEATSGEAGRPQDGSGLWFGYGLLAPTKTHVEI
Type of test: cell membranes, CHO, Membrane.

Test [4] has as its target T2, Vasoactive intestinal polypeptide receptor 1 (Homo sapiens, UniProt P32241). Also: in other assays of this panel Not Active means under 50% inhibition at 10 µM.
T2 sequence (P32241 whole entry): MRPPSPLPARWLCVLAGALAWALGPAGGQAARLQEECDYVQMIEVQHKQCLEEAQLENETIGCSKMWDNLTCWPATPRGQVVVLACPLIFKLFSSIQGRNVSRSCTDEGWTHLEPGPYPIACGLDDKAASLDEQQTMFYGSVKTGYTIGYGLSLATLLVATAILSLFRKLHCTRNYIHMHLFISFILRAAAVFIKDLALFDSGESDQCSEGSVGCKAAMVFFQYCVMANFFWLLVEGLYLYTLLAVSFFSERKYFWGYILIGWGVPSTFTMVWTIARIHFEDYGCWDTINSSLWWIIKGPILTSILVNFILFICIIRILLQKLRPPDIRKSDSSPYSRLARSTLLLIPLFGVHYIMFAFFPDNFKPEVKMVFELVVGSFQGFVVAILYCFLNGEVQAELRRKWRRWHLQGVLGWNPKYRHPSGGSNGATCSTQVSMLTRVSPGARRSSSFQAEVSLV
Type of test: cell membranes, Membrane. To be noted: ht-29.

Test [5] in a line: DRUGMATRIX: Glutamate, Kainate radioligand binding (ligand: [3H] Kainic acid). It counts as cell membranes, Rattus norvegicus, Wistar, Brain, Membrane. As to conditions: Not Active = under 50% inhibition at 10 µM.
Test [6] addresses T3, 5-hydroxytryptamine receptor 1A (Rattus norvegicus, UniProt P19327).
T3 sequence (P19327 whole entry): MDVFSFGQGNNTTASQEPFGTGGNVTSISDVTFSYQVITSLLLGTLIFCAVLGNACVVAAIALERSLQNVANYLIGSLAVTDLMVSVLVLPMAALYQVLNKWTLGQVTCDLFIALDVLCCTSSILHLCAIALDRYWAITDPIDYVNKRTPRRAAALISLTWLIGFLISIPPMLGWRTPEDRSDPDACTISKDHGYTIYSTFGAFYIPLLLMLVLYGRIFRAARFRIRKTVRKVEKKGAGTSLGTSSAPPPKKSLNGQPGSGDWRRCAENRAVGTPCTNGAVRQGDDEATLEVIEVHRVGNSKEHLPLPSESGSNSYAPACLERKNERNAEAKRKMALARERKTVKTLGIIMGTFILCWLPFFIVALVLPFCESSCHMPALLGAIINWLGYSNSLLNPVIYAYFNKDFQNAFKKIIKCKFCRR
It counts as cell membranes, CHO-K1, Membrane. As to conditions: for Ki: read-out: Ki.

Test [7] addresses T4, Estrogen receptor (Homo sapiens, UniProt P03372).
T4 sequence (P03372 whole entry): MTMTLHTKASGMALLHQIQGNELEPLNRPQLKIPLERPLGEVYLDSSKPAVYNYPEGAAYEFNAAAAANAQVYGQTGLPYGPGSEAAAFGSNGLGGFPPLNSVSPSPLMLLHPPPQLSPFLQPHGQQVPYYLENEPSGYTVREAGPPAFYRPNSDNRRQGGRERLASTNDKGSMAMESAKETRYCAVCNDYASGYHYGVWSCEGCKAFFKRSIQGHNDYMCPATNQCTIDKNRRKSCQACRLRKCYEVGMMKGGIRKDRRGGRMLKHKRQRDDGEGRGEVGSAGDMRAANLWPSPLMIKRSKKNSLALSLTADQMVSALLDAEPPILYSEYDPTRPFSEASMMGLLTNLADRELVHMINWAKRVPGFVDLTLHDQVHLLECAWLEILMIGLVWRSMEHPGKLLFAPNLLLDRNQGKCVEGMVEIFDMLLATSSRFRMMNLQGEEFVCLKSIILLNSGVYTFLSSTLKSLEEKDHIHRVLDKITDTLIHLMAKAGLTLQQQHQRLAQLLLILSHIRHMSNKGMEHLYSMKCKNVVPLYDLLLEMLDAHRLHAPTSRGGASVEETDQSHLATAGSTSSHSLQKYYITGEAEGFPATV
As to conditions: sf9.

Chain of Beta-3 adrenergic receptor (P13945 whole entry): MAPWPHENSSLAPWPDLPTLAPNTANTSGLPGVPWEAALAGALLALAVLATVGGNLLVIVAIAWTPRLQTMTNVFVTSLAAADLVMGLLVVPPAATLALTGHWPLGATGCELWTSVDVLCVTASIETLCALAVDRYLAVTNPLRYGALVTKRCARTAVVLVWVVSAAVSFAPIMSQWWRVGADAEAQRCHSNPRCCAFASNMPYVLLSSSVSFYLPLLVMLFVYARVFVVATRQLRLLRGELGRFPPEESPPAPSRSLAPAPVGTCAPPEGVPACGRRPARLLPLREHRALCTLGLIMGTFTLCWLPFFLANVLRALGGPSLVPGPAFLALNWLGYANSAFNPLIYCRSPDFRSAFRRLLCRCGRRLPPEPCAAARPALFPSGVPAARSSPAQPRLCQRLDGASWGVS

Regarding `COc1cc(N)nc2[nH]c(-c3ccc(F)cc3)c(-c3ccncc3)c12`, the IC50 result in test [1] (hek293), in test [2], in test [3] (cho), in test [4], in test [5] and in test [6] (cho-k1) was “Not Active” each time. In addition, the IC50 entry in test [7] is “Not Active”. Also, the Ki result in test [2] and in test [5] was “Not Active” in each case.

With `CNS(=O)(=O)Cc1ccc2[nH]cc(CCN(C)C)c2c1`, the IC50 entry in test [1] (hek293) is “Not Active”; in test [2] it was “Not Active”; in test [3] (cho), “Not Active”; in test [4], “Not Active”; in test [5], “Not Active”; in test [6] (read-out: IC50), 0.804 µM. Besides, the results for the Ki entry in test [2], in test [5] and in test [6] were “Not Active”, “Not Active” and 0.459 µM, respectively.

With `CCCc1nn(C)c2c(=O)[nH]c(-c3cc(S(=O)(=O)N4CCN(C)CC4)ccc3OCC)nc12`, the IC50 result in test [1] (hek293), in test [2], in test [3] (cho), in test [4], in test [5] and in test [6] (cho-k1) was “Not Active” throughout. Also, the Ki result in test [2] and in test [5] was “Not Active” throughout.

On to `COc1ccc(/C=C/C(=O)Nc2ccccc2C(=O)O)cc1OC`, for which the IC50 result in test [1] (hek293), in test [2], in test [3] (cho), in test [4], in test [5] and in test [6] (cho-k1) was “Not Active” each time. Moreover, in test [7], the 50% inhibitory concentration (IC50) entry is on record as “Not Active”. The Ki result in test [2] and in test [5] was “Not Active” throughout.

`CCOC(N)=O`: the IC50 entry in test [1] (hek293), in test [2], in test [3] (cho), in test [4], in test [5] and in test [6] (cho-k1) was “Not Active” throughout. The IC50 entry in test [7] is listed as “Not Active”. Also, the Ki entry in test [2] and in test [5] was “Not Active” throughout.

On to `CC(=O)Nc1nnc(S(N)(=O)=O)s1` [ACETAZOLAMIDE], for which the IC50 result in test [1] (hek293), in test [3] (cho), in test [4], in test [6] (cho-k1) and in test [7] was “Not Active” throughout.

On to `O=c1[nH]c2ccccc2n1CCCN1CCC(n2c(=O)[nH]c3cc(Cl)ccc32)CC1` [DOMPERIDONE], for which the IC50 entry in test [1] (hek293), in test [3] (cho), in test [4] and in test [6] (cho-k1) was “Not Active” each time.

`CC(C)OC(=O)C(C)(C)Oc1ccc(C(=O)c2ccc(Cl)cc2)cc1` [FENOFIBRATE]: the IC50 in test [1] (read-out: IC50) was 124 µM; in test [3] (cho), “Not Active”; in test [4] it was “Not Active”; in test [6] (cho-k1), “Not Active”; in test [7], “Not Active”. Besides, the Ki in test [1] came out at 93 µM.

Turning to `OCCN1CCN(CCCN2c3ccccc3Sc3ccc(C(F)(F)F)cc32)CC1` [FLUPHENAZINE], the IC50 in test [1] (read-out: IC50) is 29.5 µM; in test [3] (read-out: IC50) it was 22.5 µM; in test [4], “Not Active”; in test [6] (read-out: IC50) it was 1.64 µM; in test [7], “Not Active”. Besides, the Ki is 22.1 µM in test [1], 7.49 µM in test [3] (read-out: Ki) and 0.939 µM in test [6].

In the case of `CN1C2CCCC1CC(NC(=O)c1nn(C)c3ccccc13)C2` (stereo not given) [GRANISETRON], the IC50 result in test [1] (hek293), in test [3] (cho), in test [4], in test [6] (cho-k1) and in test [7] was “Not Active” throughout.

For `Nc1nc2c(c(=O)[nH]1)N(C=O)C(CNc1ccc(C(=O)N[C@@H](CCC(=O)O)C(=O)O)cc1)CN2` (stereo not given in full) [LEUCOVORIN], the IC50 result in test [1] (hek293), in test [2], in test [3] (cho), in test [4], in test [5] and in test [6] (cho-k1) was “Not Active” each time. Besides, the Ki entry in test [2] and in test [5] was “Not Active” in each case.

On to `C[C@@H](O)[C@H]1C(=O)N2C(C(=O)O)=C(S[C@@H]3CN[C@H](C(=O)N(C)C)C3)[C@H](C)[C@H]12` [MEROPENEM], for which the IC50 entry in test [1] (hek293), in test [2], in test [3] (cho), in test [4], in test [5] and in test [6] (cho-k1) was “Not Active” in each case. The Ki result in test [2] and in test [5] was “Not Active” each time.

As to `CC[C@@H](CO)NC(=O)[C@@H]1C=C2c3cccc4c3c(cn4C)C[C@H]2N(C)C1` [METHYSERGIDE], the IC50 entry in test [1] (hek293) was “Not Active”; in test [3] (cho), “Not Active”; in test [4], “Not Active”; in test [6] (read-out: IC50) it was 0.054 µM; in test [7], “Not Active”. For the same molecule, the inhibition constant Ki in test [6] came out at 0.031 µM.

Consider `CCN(CC)CC#CCOC(=O)C(O)(c1ccccc1)C1CCCCC1` (stereo not given) [OXYBUTYNIN], for which the IC50 result in test [1] (hek293), in test [3] (cho), in test [4] and in test [6] (cho-k1) was “Not Active” in each case.

In the case of `C=C(C)[C@H]1Cc2c(ccc3c2O[C@@H]2COc4cc(OC)c(OC)cc4[C@@H]2C3=O)O1` [ROTENONE], the IC50 result in test [1] (hek293), in test [2], in test [3] (cho), in test [4], in test [5] and in test [6] (cho-k1) was “Not Active” in each case. Moreover, the Ki result in test [2] and in test [5] was “Not Active” throughout.

For the molecule `Nc1ccc(S(=O)(=O)Nc2ncccn2)cc1` [SULFADIAZINE], the IC50 entry in test [1] (hek293), in test [2], in test [3] (cho), in test [4], in test [5] and in test [6] (cho-k1) was “Not Active” each time. The Ki entry in test [2] and in test [5] was “Not Active” in each case.

Take `CC(C)(C)NC[C@H](O)COc1nsnc1N1CCOCC1` [TIMOLOL]: the IC50 is 0.452 µM in test [1] (read-out: IC50); “Not Active” in test [2]; “Not Active” in test [3] (cho); “Not Active” in test [4]; “Not Active” in test [5]; 2.71 µM in test [6] (read-out: IC50). The Ki is 0.339 µM in test [1], “Not Active” in test [2], “Not Active” in test [5] and 1.55 µM in test [6].

`O=c1n(CCCN2CCN(c3cccc(Cl)c3)CC2)nc2ccccn12` [TRAZODONE]: the IC50 entry in test [1] (hek293), in test [3] (cho) and in test [4] was “Not Active” each time.

For the molecule `O=C(O)C(Cl)(Cl)Cl` [TRICHLOROACETIC ACID], the IC50 entry in test [1] (hek293), in test [2], in test [3] (cho), in test [4], in test [5] and in test [6] (cho-k1) was “Not Active” in each case. The Ki result in test [2] and in test [5] was “Not Active” each time.

Broadly, the IC50 is the concentration needed to halve the response being measured. What is called Ki is a dissociation constant, usually derived from enzyme kinetics or from competition with a known ligand.
